Test results as given in patent US11541037B2, “Alkaloids from sponge, scaffolds for the inhibition of human immunodeficiency virus (HIV)” (King Abdullah University of Science and Technology, priority 2014, dated 2023).
Converted amounts (≈) assume the structure as drawn. “Also recorded” adds a separate entry of the source. Read-outs that look alike come from different tables or passages of the source.

Legend:
LC5-RIC cells = experiment: MTT cell proliferation (vitality) assay of infected LC5-RIC cells; type: cell-based; details: for concentrations at which cytotoxicity was observed / cytotoxicity (in words): LC5-RIC cells; for cytotoxicity (in words): tested concentrations 3.1-50 μM
Experimental: The colorimetric assay […] was used in order to assess the viability and activity of LC5-RIC cells exposed to the unknown sponge mixtures, SPE fraction 1 and HPLC fractions 1-11, for three biological replicates. This cell vitality assay provides a visualization of the process where mitochondrial enzymes reduce the yellow MTT to purple formazan (ATCC, MTT cell proliferation assay). After reading the HIV reporter expression, cultures were incubated with 100 μl of MTT solution (0.5 mg of […]; Sigma, Taufkirchen, Germany) in 100 μl of culture medium for 2 hours. MTT solution was removed and 100 μl of lysis solution (10% [wt/vol] SDS and 0.6% [vol/vol] acetic acid in dimethyl sulfoxide [DMSO]) was added. The formazan concentrations of the test compounds and the uninfected control cultures were determined by an ELISA plate reader (Tecan Infinite M200, Tecan Germany GmbH, Crailsheim) and scanned with a test wavelength of 570 nm and a reference wavelength of 630 nm.

[1] = target: T1, HIV-1 reverse transcriptase (Human immunodeficiency virus type 1 group M subtype B, UniProt P04585); experiment: HIV-1 reverse transcriptase biochemical assay (EnzChek); details: for anti-HIV-1 RT activity (in words): screened at 3.1-100 μM
T1 construct: The reverse transcriptase is a heterodimer with the p66 and the p51 subunits; purchased Calbiochem, Merck-Millipore
Experimental: The HIV-1 reverse transcriptase inhibition assay was carried out using the commercial kit EnzChek® Reverse Transcriptase Assay (Invitrogen, San Jose, Calif., USA). The reverse transcriptase is a heterodimer with the p66 and the p51 subunits with RNase H activity located in the last 15 KDa of the p66 HIV Reverse transcriptase (Calbiochem, Merck-Millipore). Polymerase activity was assessed by its ability to produce RNA-DNA heteroduplexes from a mixture of a long poly (A) template, an oligo dT primer and dTTP which is then detected by PicoGreen® dsDNA quantitation reagent. The single compound and controls were performed in triplicated in a 384-well plate format, each with a total reaction mixture of 50 μL. To begin, the poly (A) template was annealed to the oligo dT primer for one hour, then diluted 200 fold in polymerization buffer. Reverse transcriptase (1.2 μl) was added per 300 reactions. This mixture was kept on ice and aliquoted to each well with test compounds. The reaction was incubated at room temperature for one hour and then 2 μl of […] EDTA was added to stop the reaction. The RNA-DNA heteroduplex was labeled with PicoGreen and incubated for 5 minutes and then detected with the use of a SpectraMax® Paradigm® Multi-mode Microplate Detection Platform (Molecular Devices, Sunnyvale, Calif., USA) by scanning at 480 nm excitation wavelength and 520 nm emission wavelength. […] Statistical significances were determined using a one-way ANOVA.

HIV-1 [2] = tested on: HIV-1
Experimental: (§1) The EASY-HIT assay (Kremb et al. [11]) is based on HIV-1 susceptible reporter cells (LC5-RIC) that contain a stably integrated fluorescent reporter gene that is activated upon successful HIV-1 infection and expression of the early viral proteins Rev and Tat. LC5-RIC were seeded into 96-well plates (μCLEAR-Plate Black; Greiner Bio-One, Kremsmuenster, Germany) using only the 60 inner wells to avoid variations in the culture conditions in the outer wells. Cells were seeded ata density of 10,000 cells per well 24 hours prior to infection. SPE fractions for the biological replicates C26, C14 and D5, were tested in a serial 1:2-dilution with a maximum of 3% methanol or approximately 75 μg/ml for the S. carteri fraction 1 mixture on the EASY-HIT assay [11]. For the HPLC fractions, SPE fraction 1 HPLC fractions 1-11, were tested on the EASY-HIT assay for biological replicates C26, C14 and D5. The authentic samples of HD, DBH, and oroidin were screened at 3.1 μM, 6.25 μM, 12.5 μM, 25 μM, and 50 μM. All samples were tested in triplicates. After compound addition, LC5-RIC cells were infected by adding 20 μl of HIV-1 inoculum (approx. 28.8 ng of p24 for HIV-1LAI derived from HEK 293T cells) to each well of the plate. Cells were incubated at standard cell culture conditions for 48 hours after infection and were subsequently assayed for reporter expression and cell viability.
(§2) Reporter expression was determined by measuring the total fluorescent signal intensity of each culture with a fluorescence microplate reader (Fluoroskan Ascent; ThermoFisher, Schwerte, Germany) at an excitation filter wavelength of 544 nm and an emission filter wavelength of 590 nm or with a Tecan infinite M200 (Tecan, Crailsheim, Germany) at the monochromator wavelengths 552 nm for excitation and 596 for emission. Statistical significances were determined using one-way ANOVA.

[3] = vendor data, Enzo Life Sciences, cited from earlier work
HIV-1 [4] = experiment: microbe, parasite or virus in culture; details: Human immunodeficiency virus 1, read-out: concentration giving 50% inhibition of HIV-1 (viral replication)
Experimental: as §1, §2

HIV = details: concentrations not detailed; cited from earlier work

Structure (SMILES)	effect on cell vitality (LC5-RIC cells; 13 μM)	concentrations at which cytotoxicity was observed (LC5-RIC cells)	cytotoxicity (in words) (LC5-RIC cells)	anti-HIV-1 RT activity (in words) [1]	HIV-1 infection, % of untreated controls (HIV-1 [2]; 13 μM) [%]	solubility (in words) [3]	IC50 (HIV-1 [4]) [µM]	effect on cell vitality (LC5-RIC cells; 3.1 μM)	HIV infection, % of untreated controls (HIV-1 [2]; 3.1 μM) [%]	inhibition of HIV-1 replication (in words) (HIV-1 [2]; EASY-HIT, LC5-RIC cells)	solubility in DMSO ([3]; DMSO) [µg/mL]	cytotoxicity (in words) (LC5-RIC cells; listed as Oroidin)	inhibition of HIV-1 reverse transcriptase activity ([1]; 25 μM)	inhibition of the HIV-1 RT enzyme ([1]; concentrations greater than 25 μM) [%]	HIV-1 infection, % of untreated controls (HIV-1 [2]; 50 μM) [%]	reduction of HIV-1 replication (HIV-1 [2]; 50 μM)	inhibition of HIV-1 replication (in words) (HIV-1 [2]; EASY-HIT, LC5-RIC cells, listed as Oroidin)	IC50 (HIV-1 [2]; read-out: concentration giving 50% inhibition of HIV-1 (viral replication), EASY-HIT, LC5-RIC cells, purchased pure compounds) [µM]	ability to inhibit HIV replication, previous study (HIV)
NC1=NC(=O)/C(=C2\CCNC(=O)c3[nH]ccc32)N1 [DBH, 4-(2-Amino-4-oxo-2-imidazolin-5-ylidene)-4,5,6,7-tetrahydropyrrolo[2,3-c]azepin-8-one]	without affecting cell vitality	greater than 13 μM	exhibited cytotoxicity	did not show anti-HIV-1 RT activity; also recorded: do not affect this enzyme	30	Soluble in 100% ethanol or DMSO	7	–	–	–	–	–	–	–	–	–	–	–	–
NC1=NC(=O)/C(=C2\CCNC(=O)c3[nH]c(Br)cc32)N1 [HD, 10Z-Hymenialdisine]	–	greater than 3.1 μM	exhibited cytotoxicity	did not show anti-HIV-1 RT activity; also recorded: do not affect this enzyme	–	–	13	without affecting cell vitality	< 40	capable of inhibiting HIV-1 replication	5000 (≈ 15.4 mM)	–	–	–	–	–	–	–	–
Nc1ncc(/C=C/CNC(=O)c2cc(Br)c(Br)[nH]2)[nH]1 [oroidin]	–	–	non-cytotoxic at all tested concentrations; also recorded: without causing cytotoxicity; also recorded: no associated toxicity	directly acting to inhibit the retroviral reverse transcriptase	–	–	–	–	–	capable of inhibiting HIV-1 replication	–	nontoxic for cells at all tested concentrations	up to 90%	90	50	up to 50%	weakest antiviral activity	50	inactive
